{"source": "patent US20180290977A1", "about": "“KDM4 INHIBITORS” (Albert-Ludwigs-University Freiburg, priority 2017, published 2018)", "format_in_all_cases": "cell-based, human", "key": {"BCSC1 cells [1]": {"system": "BCSC1 cells", "experiment": "BCSC cell proliferation / dose-response assay", "details": "erlotinib, 10 μM (FIG. 7B)", "procedure": "(§1) For dose-response assays, cells were detached by ACCUTASE solution dissociation and counted. […] After incubation at 37° C. for 30 min to solidify the [sequence], 1×10^3 single cells were seeded per 384-well in 40 μL medium. […] Following 96 hr of incubation under normal culture conditions, the cells were washed once with PBS and fixed with ice-cold methanol for at least 15 min at −20° C. After another washing step with PBS, cells were stained with DAPI (Sigma-Aldrich) and read-out with the ScanR microscope-based imaging platform (Olympus Deutschland GmbH, Hamburg, Del.). Total DAPI cell nuclear counts per well were determined.\n(§2) For the cell proliferation assays, BCSCs tagged with a stable NLS-mCherry fluorescent signal (nuclear localization peptide) were used for this assay. Cells were detached by ACCUTASE dissociation and counted. Each well of a black 384-well plate (Greiner) was coated with 10 μL of MSC medium containing 2% [sequence]. After incubation at 37° C. for 30 min to solidify the [sequence], 1×10^3 single cells/well were seeded in 40 μL medium. […] Afterwards, the first readout with the ScanR microscope-based imaging platform (Olympus) was started, assessing mCherry-fluorescent cell nuclei in nine sectors of each well under 60% humidity and 5% CO2. This readout was repeated every 24 hr for 7 days. […]"}, "BCSC2 cells [2]": {"system": "BCSC2 cells", "experiment": "BCSC cell proliferation / dose-response assay", "details": "erlotinib, 10 μM (FIG. 7C)", "procedure": "as §1, §2"}, "BCSC1 cells [3]": {"system": "BCSC1 cells", "experiment": "Anchorage-independent sphere formation assay (methylcellulose)", "details": "erlotinib 1 μM or 10 μM (FIG. 7F)", "procedure": "(§3) For the cancer stem-cell spheroid assay in methylcellulose, cells were detached by ACCUTASE solution and counted. 3×10^3 single BCSC1 and 1×10^3 single BCSC2 cells were seeded into individual wells of 96-well ultra-low attachment plates (CORNING, #3474) in serum-free MSC medium containing 1% methylcellulose (Sigma-Aldrich, #M0512)."}, "BCSC2 cells [4]": {"system": "BCSC2 cells", "experiment": "Anchorage-independent sphere formation assay (methylcellulose)", "details": "erlotinib 1 μM or 10 μM (FIG. 7G)", "procedure": "as §3"}}, "data": [{"smiles": "C#Cc1cccc(Nc2ncnc3cc(OCCOC)c(OCCOC)cc23)c1", "note": "[erlotinib]", "values": [{"measurement": "proliferation of BCSC1 cells", "setting": "BCSC1 cells [1]", "value": "blocked"}, {"measurement": "proliferation of BCSC2 cells", "setting": "BCSC2 cells [2]", "value": "blocked"}, {"measurement": "3D-colony forming capacity", "setting": "BCSC1 cells [3]", "value": "dramatically reduced"}, {"measurement": "3D-colony forming capacity", "setting": "BCSC2 cells [4]", "value": "dramatically reduced"}]}]}
